# Assays:
# [1] = system: V. pensylvanica; experiment: Field trapping Experiment 1, Rescue W•H•Y traps; assay type: in vivo, Vespula pensylvanica; details: Exp 1; HIPV added to WHY attractant in the top chamber, or WHY alone
# Method: (§1) Three field trapping experiments were carried out during late July to early August 2009, in residential and woody areas around Spokane, Wash., USA, using the newly marketed Rescue® W•H•Y traps (www.rescue.com). As used herein, the W•H•Y trap is a trap in accordance with the description of United States Patent Application Publication No. 2009/0151228. The W•H•Y trap has a top chamber and a bottom chamber. The top chamber is baited with two attractants—one of which is a solid contained in a vial (2-methyl-1-butanol) and the other a liquid mixed with water (acetic acid), herein referred to as the W•H•Y top attractant. The bottom chamber is baited with a liquid attractant (heptyl butyrate) poured onto a cotton pad, herein referred to as the W•H•Y bottom attractant. Separation of the top and bottom attractants (otherwise antagonistic to each other when released from the same chamber) in two chambers was a design feature of this trap and creates two focal attraction sources from one trap for different species of wasps, hornets, and yellowjackets. Traps were hung 1.5-2.0 m above the ground on either the fence or tree branches ca. 5 m apart within each trap line. For each trapping experiment, six sets of traps were deployed with their initial trap positions within each set being randomized. To minimize positional effects and obtain more replications, wasp collections and trap re-randomization were carried out when ≧10-20 wasps were caught in the best trap. Each replicate lasted several days depending on wasp flight activity. Captured wasps were removed from the traps and kept in the zip-bags before taking back to the laboratory for recording of the species, gender status, and catch.
# (§2) Experiment 3 (Aug. 5-13, 2009) was conducted to determine the potential behavioral activity of different doses of (E)-4,8-dimethyl-1,3,7-nonatriene alone. The individual (or different doses) HIPVs were loaded into either polyethylene bags or centrifuge tube type of dispensers, and released from the top of the W•H•Y trap chamber. W•H•Y trap attractants (both top and bottom or top only) alone and water (top chamber only) were included in the test as positive and blank controls, respectively. The dispenser types, loading and release rates of the tested semiochemicals are described in Tables 1, 2 and 3.
# (§3) Trap catch data were converted to proportion (P) of total captured wasps within each replicate. Data were then transformed by arcsin√P to meet the assumptions of normality and homogeneity of variances for ANOVA. Means were compared by ANOVA followed by the Ryan-Einot-Gabriel-Welsh (REGW) multiple Q test (SPSS 16.0 for Windows) at α=0.05.
# [2] = system: D. arenaria; experiment: Field trapping Experiment 1, Rescue W•H•Y traps; assay type: in vivo, Dolichovespula arenaria; details: Exp 1; HIPV added to WHY attractant in the top chamber, or WHY alone
# Method: as §1
# (§4) Experiment 1 (Jul. 22-30, 2009) tested ten synthetic HIPV candidates [(E)-2-hexenal, (Z)-3-hexen-1-ol, (Z)-3-hexenyl acetate, cis-ocimene, linalool, methyl salicylate, geranyl acetate, trans-β-caryophyllene, trans-β-farnesene and (E)-4,8-dimethyl-1,3,7-nonatriene], including several paper wasp EAD-active compounds (see FIG. 2 for details), to determine their potential synergistic effect on the Rescue® W•H•Y trap attractants to paper wasps, yellowjackets, and hornets. Experiment 2 (Aug. 5-13, 2009) tested behavioral responses of the paper wasps and yellowjackets to the Rescue® W•H•Y trap attractants (top attractants only) and its combination with (E)-4,8-dimethyl-1,3,7-nonatriene, one of the EAD-active and behaviorally significant HIPVs, in a dose-response fashion. Experiment 3 (Aug. 5-13, 2009) was conducted to determine the potential behavioral activity of different doses of (E)-4,8-dimethyl-1,3,7-nonatriene alone. The individual (or different doses) HIPVs were loaded into either polyethylene bags or centrifuge tube type of dispensers, and released from the top of the W•H•Y trap chamber. W•H•Y trap attractants (both top and bottom or top only) alone and water (top chamber only) were included in the test as positive and blank controls, respectively. The dispenser types, loading and release rates of the tested semiochemicals are described in Tables 1, 2 and 3.
# as §3
# [3] = system: V. acadica; experiment: Field trapping Experiment 1, Rescue W•H•Y traps; assay type: in vivo, Vespula acadica; details: Exp 1; HIPV added to WHY attractant in the top chamber, or WHY alone
# Method: as §1, §2, §3
# [4] = system: P. aurifer; experiment: Field trapping Experiment 1, Rescue W•H•Y traps; assay type: in vivo, Polistes aurifer; details: Exp 1; HIPV added to WHY attractant in the top chamber, or WHY alone
# Method: as §1, §2, §3
# [5] = system: D. maculata; experiment: Field trapping Experiment 1, Rescue W•H•Y traps; assay type: in vivo, Dolichovespula maculata; details: Exp 1; HIPV added to WHY attractant in the top chamber, or WHY alone
# Method: as §1, §4, §3
# [6] = system: V. vulgaris; experiment: Field trapping Experiment 1, Rescue W•H•Y traps; assay type: in vivo, Vespula vulgaris; details: Exp 1; HIPV added to WHY attractant in the top chamber, or WHY alone
# Method: as §1, §2, §3
# [7] = system: P. dominulus; experiment: Field trapping Experiment 1, Rescue W•H•Y traps; assay type: in vivo, Polistes dominulus; details: Exp 1; HIPV added to WHY attractant in the top chamber, or WHY alone
# Method: as §1, §2, §3
# [8] = system: Podisus maculiventris antennae; experiment: GC-EAD of synthetic HIPVs on beneficial insect antennae; details: FIG. 6
# Method: (§5) Aeration samples of the cherry branches (damaged or undamaged/slightly damaged) were injected (3 μl) splitless into a Varian CP-3800 GC equipped with a polar column (HP-INNOWax; 30 m×0.53 mm×1.0 μm film thickness; Agilent Technologies, Wilmington, Del., USA) and a 1:1 effluent splitter that allowed simultaneous flame ionization detection (FID) and electroantennographic detection (EAD) of the European paper wasp (Polistes dominulus) worker antennae to the separated volatile compounds. Helium was used as the carrier gas, and the injector and detector temperatures were 250° C. and 300° C., respectively. Column temperature was 50° C. for 1 min, rising to 240° C. at 10° C./min, and then held for 10 min. The outlet for the EAD was held in a humidified air stream flowing at 0.5 m/sec over the antennal preparation. EAD recordings were made using silver wire-glass capillary electrodes filled with Beadle-Ephrussi Ringer on freshly cut antennae. The antennal signals were stored and analyzed on a PC equipped with a serial IDAC interface box and the program EAD ver. 2.5 (Syntech, Hilversum, The Netherlands). In addition, GC-EAD responses to a synthetic mixture (100 ng/μl each) containing nine known HIPVs including cis-3-hexen-1-ol, cis-3-hexenyl acetate, trans-β-ocimene, (E)-4,8-dimethyl-1,3,7-nonatriene, linalool, methyl salicylate, geranyl acetate, trans-β-caryophyllene and trans-β-farnesene were tested on the P. dominulus workers. (See FIG. 2.) The same chemicals were also tested on beneficial insect antennae from Chrysopa oculata, Myrmeleon crudelis, Podisus maculiventris, and Hippodarnia convergens. (See FIG. 6.) Antennally active peaks in the aeration samples were identified by GC-MS on an HP 6890 GC series coupled with an HP 5973 Mass Selective Detector using the same type of GC column and conditions as described above. Compounds were identified by comparison of retention times with those of authentic standards and with mass spectra of standards.
# [9] = system: Chrysopa oculata antennae; experiment: as above; details: FIG. 6
# Method: as §5
# [10] = system: Hippodarnia convergens antennae; experiment: as above; details: FIG. 6
# Method: as §5
# [11] = system: Myrmeleon crudelis antennae; experiment: as above; details: FIG. 6
# Method: as §5
# [12] = system: V. atropilosa; assay type: in vivo, Vespula atropilosa; details: Exp 1; HIPV added to WHY attractant in the top chamber, or WHY alone
compound,measurement,setting,value
"CC/C=C\CCOC(C)=O [Z-3-Hexenyl Acetate, (Z)-3-hexenyl acetate]",Total Yellowjacket Catches V. pensylvanica,[1],311
same,Total Yellowjacket Catches D. arenaria,[2],8
same,Total Yellowjacket Catches V. acadica,[3],1
same,Total Paper Wasps P. aurifer,[4],9
same,Total Yellowjacket Catches D. maculata,[5],1
same,Total Yellowjacket Catches V. vulgaris,[6],34
same,Total Paper Wasps P. dominulus,[7],40
same,EAD-response,[8],strong EAD-responses
same,EAD-response,[9],strong EAD-responses
same,EAD-response,[10],strong EAD-responses
same,EAD-response,[11],strong EAD-responses
same,Total Yellowjacket Catches V. atropilosa,[12],0
"COC(=O)c1ccccc1O [Methyl Salicylate, methyl salicylate]",Total Yellowjacket Catches V. pensylvanica,[1],226
same,Total Yellowjacket Catches D. arenaria,[2],4
same,Total Yellowjacket Catches V. acadica,[3],0
same,Total Paper Wasps P. aurifer,[4],6
same,Total Yellowjacket Catches D. maculata,[5],1
same,Total Yellowjacket Catches V. vulgaris,[6],23
same,Total Paper Wasps P. dominulus,[7],33
same,EAD-response,[8],strong EAD-responses
same,EAD-response,[9],strong EAD-responses
same,EAD-response,[10],strong EAD-responses
same,EAD-response,[11],strong EAD-responses
same,Total Yellowjacket Catches V. atropilosa,[12],4
"CC/C=C\CCO [Z-3-Hexanol, (Z)-3-hexen-1-ol]",Total Yellowjacket Catches V. pensylvanica,[1],288
same,Total Yellowjacket Catches D. arenaria,[2],1
same,Total Yellowjacket Catches V. acadica,[3],0
same,Total Paper Wasps P. aurifer,[4],4
same,Total Yellowjacket Catches D. maculata,[5],5
same,Total Yellowjacket Catches V. vulgaris,[6],33
same,Total Paper Wasps P. dominulus,[7],25
same,Total Yellowjacket Catches V. atropilosa,[12],0
"C=C/C=C(\C)CCC=C(C)C [(E)-4,8-dimethyl-1,3,7-nonatriene]",Total Yellowjacket Catches V. pensylvanica,[1],463
same,Total Yellowjacket Catches D. arenaria,[2],7
same,Total Yellowjacket Catches V. acadica,[3],1
same,Total Paper Wasps P. aurifer,[4],12
same,Total Yellowjacket Catches D. maculata,[5],12
same,Total Yellowjacket Catches V. vulgaris,[6],52
same,Total Paper Wasps P. dominulus,[7],152
same,EAD-response,[8],strong EAD-responses
same,EAD-response,[9],strong EAD-responses
same,EAD-response,[10],strong EAD-responses
same,EAD-response,[11],strong EAD-responses
same,Total Yellowjacket Catches V. atropilosa,[12],3

# From patent US20110165115A1, “SYNERGISTIC ATTRACTANTS FOR PESTIFEROUS SOCIAL INSECTS” (STERLING INTERNATIONAL INC., priority 2010, published 2011)
